From paper PMC5698590 (British Journal of Clinical Pharmacology, 2017)
“Also recorded” adds a separate entry of the source. Like-named read-outs stand apart in the source and are kept apart here. Marks after values point to notes of the source that are not given here.

Tests used:
[1] = Population pharmacokinetic modelling of DHA and piperaquine plasma concentrations in healthy Thai volunteers; assay type: in vivo, human; conditions: for half-life / AUC / Cmax / Tmax: both sexes, plasma, oral; for AUC: read-out: AUC (time zero to infinity), median (range); for Cmax: read-out: CMAX, median (range); for Tmax: read-out: TMAX, median (range); for MTT (mean transit time), population estimate (%RSE): oral DHA-piperaquine three tablets
Method: It was a descriptive pharmacokinetic-pharmacodynamic study and no formal sample size calculations were performed. […] All volunteers received primaquine alone in the first phase, followed by a washout period of 1 week. In the second and third phases, volunteers received DHA-piperaquine alone and DHA-piperaquine coadministered with primaquine at random, with an intervening washout period of 8 weeks. Study drug regimens comprised two tablets of primaquine (each tablet containing 15 mg primaquine base) and three tablets of co-formulated DHA-piperaquine (each tablet containing 40 mg DHA and 320 mg piperaquine phosphate). Study drugs were administered in the morning, 30 min after a light meal (~200 kcal and 8 g fat) with a glass of water. Venous blood samples (2 ml) were collected into fluoride-oxalate blood collection tubes. Blood samples were taken at 0 (predose), 0.25, 0.5, 1, 1.5, 2, 3, 4, 6, 8, 10, 12, and 24 h postdose. Additional blood samples were taken at days 3, 4, 7, 11, 15, 22, and 36 for piperaquine drug measurements. The exact drug administration and sampling times were recorded. Blood and plasma were separated by centrifugation at 2000 × g at 4°C for 7 min. All plasma samples were stored below -70°C and transferred on dry ice to the Department of Clinical Pharmacology, Mahidol-Oxford Tropical Medicine Research Unit (MORU), Bangkok, Thailand, for drug quantification. Plasma concentrations of DHA and piperaquine were measured using solid-phase extraction followed by liquid chromatography coupled with tandem mass spectrometry 25, 26. Quality control samples at low, middle and high concentration (5.87, 117 and 1880 ng ml^-1 for DHA and 4.50, 20.0 and 400 ng ml^-1 for piperaquine) were analysed in triplicate within each batch of study samples, to ensure the accuracy and precision of the drug assay. […] The lower limit of quantification (LLOQ) was set to be 2.00 ng ml^-1 for DHA and 1.50 ng ml^-1 for piperaquine. The laboratory is a participant in the QA/QC proficiency testing programme supported by the Worldwide Antimalarial Resistance Network 27. DHA and piperaquine plasma concentrations were transformed into their natural logarithms and analysed using a nonlinear mixed-effects modelling approach in NONMEM version 7.3 (Icon Development Solution, Ellicott City, MD, USA). […] version 2.9.0 28, Perl-speaks-NONMEM version 3.5.3 (PsN) 29 and Xpose version 4.0 30 were used for automation, model evaluation and diagnostics during the model-building process. The first-order conditional estimation method with interactions (continuous data only) or the Laplacian estimation method (a combination of continuous and categorical data) was used throughout modelling and simulation. […] Therefore, two LLOQ methods were evaluated during the model-building process 31. Data below the LLOQ were omitted (M1 method) or modelled as categorical data (M3 method). Model fitness was evaluated primarily by the objective function value (OFV; calculated by NONMEM as proportional to -2 × log-likelihood of the data). […] One-, two-, three- and four-compartment structural disposition models were evaluated for DHA and piperaquine. The best performing model was used to evaluate the absorption characteristics of DHA and piperaquine (i.e. first-order absorption with and without lag time, zero-order absorption and transit absorption). The transit compartment absorption model is a more mechanistic description of delayed absorption compared with the dichotomous properties of a lag-time model 32.

[2] = Drug-drug interaction with primaquine coadministration (stepwise and full covariate approach, bootstrap n = 1000); assay type: in vivo, human; conditions: for Effect of primaquine coadministration on pharmacokinetic properties: stepwise covariate approach
Description: All continuous and categorical covariates (aspartate aminotransferase, alanine aminotransferase, alkaline phosphatase, haemoglobin, blood urea nitrogen, serum creatinine level, albumin level, primaquine coadministration and age) were investigated by using a stepwise forward inclusion (P‐value <0.05), followed by stepwise backward elimination (P‐value >0.001). A strict P‐value of 0.001 for the backward elimination was used as there were relatively few subjects in the present study 34. Gender was not evaluated as a covariate owing to the substantial imbalance between male and female subjects (five males out of 16 subjects). The effect of primaquine coadministration was also modelled separately, using a full covariate approach in which the primaquine coadministration was implemented as a categorical covariate on all pharmacokinetic parameters (except relative bioavailability owing to identifiability issues) in the final pharmacokinetic model. The full covariate models were bootstrapped (n = 1000) to determine a potentially influential drug–drug interaction on primary and secondary pharmacokinetic parameters. A primaquine‐dependent change of more than ±25% in parameter estimates was deemed a clinically relevant drug–drug interaction.

[3] = cited from earlier work
QT interval = test: Population pharmacokinetic-pharmacodynamic model of piperaquine concentration vs double-delta-corrected QTc prolongation (12-lead ECG); assay type: in vivo, human
Method: Subjects were rested for at least 20 min before ECG measurements were taken (ECG‐1250 K, Nihon Kohden, Japan). 12‐lead ECG measurements were performed twice before drug administration, and at 1, 2, 4, 8, 12, and 24 h after each study drug administration. The ECGs were recorded at 10 mm mV^–1 sensitivity, and 25 mm s^–1 paper speed. Automatic readouts of all ECG measurements were collected but all ECGs with a reported QT interval greater than 450 ms were manually adjudicated by a research physician (unblinded) and a cardiologist (blinded). Other abnormal ECG waveforms were read by a cardiologist. Observed QT intervals were later corrected for heart rate by both the Fridericia and Bazett formulae 24. Data‐driven individual and study population correction factors were also evaluated (see section on methodology, below).
The observed QT interval must be corrected for heart rate in order to compare QT intervals between and within patients. Observed QT measurements were corrected by the traditionally used Bazett and Fridericia formulae (i.e. fixing the exponent (α) to 1/2 and 1/3, respectively, in Equation (5)). Furthermore, all observed individual QT and RR intervals from the placebo arm (i.e. primaquine‐alone arm) in a subject were used to determine the optimal individual QT correction factor (α) for each subject using ordinary least‐squares fit (Equation (5)). The calculated individual correction factor for a particular subject was then applied to all measured QT intervals for that subject, in order to generate corrected QT intervals (QTc) 24.
The appropriateness of the applied correction methods was evaluated by individual linear regression analysis of QTc vs. RR. The relationship between piperaquine drug concentrations and QRS, JT (i.e. QT – QRS) and QT intervals was evaluated with ordinary linear regression to assess the most appropriate modelling approach.
Double‐delta corrections are commonly performed to adjust for the observed circadian rhythm of ECG measurements 37. Thus, double‐delta‐corrected QTc prolongations (ΔΔQTc) were calculated by subtracting the placebo arm ΔQTc from the treatment arm ΔQTc, as in Equation (7). The primaquine‐alone arm was used as the placebo arm.
Calculated ΔΔQTc‐prolongations were used as the pharmacodynamic endpoint. Individually predicted piperaquine concentrations (CP) were obtained from imputing individual pharmacokinetic parameter estimates directly into the pharmacodynamic model. The relationship between drug exposure and QT prolongation was evaluated initially by a linear direct‐response pharmacodynamic model, as in Equation (8).
(8) ΔΔQTc=θ1+η1+θ2×CPt+εi where θ1 represents the typical baseline ΔΔQTc prolongation, η1 is the normally distributed between‐subject variability, θ2 is the slope of the exposure–response relationship and εi is the normally distributed residual error. Different exposure–response relationships (i.e. power model and EMAX model) were also investigated during the model development process. Hysteresis was investigated to account for a possible delayed exposure–response relationship (i.e. turn‐over and link models).
Age, gender, electrolyte levels (i.e. potassium and sodium) at admission and concomitant primaquine administration were evaluated as linear covariates on the piperaquine‐related ΔΔQTc prolongation, using a stepwise addition–deletion approach (as described above). Model evaluation and diagnostics were performed in the same manner as for the pharmacokinetic modelling approach.

[4] = human, with primaquine, Bayesian post hoc estimates
[5] = human, with primaquine, Bayesian post hoc estimates, read-out: t1/2 (terminal half-life), median (range) (converted)
[6] = human, without primaquine, Bayesian post hoc estimates
[7] = human, without primaquine, Bayesian post hoc estimates, read-out: t1/2 (terminal half-life), median (range) (converted)
[8] = healthy volunteers, typical individual 64 kg
[9] = healthy volunteers, typical individual 64 kg, two-compartment model
[10] = F fixed to 100% for the population
[11] = healthy volunteers, typical individual 64 kg, three-compartment model
[12] = full covariate approach, 95% CI included zero effect

## C[C@H]1[C@@H](O)O[C@@H]2O[C@@]3(C)CC[C@H]4[C@H](C)CC[C@@H]1[C@@]24OO3 [dihydroartemisinin]
[1]; human, three-compartment model, not carried forward, read-out: Median terminal half-life from the three-compartment model (converted)
  half-life: 3.11 h
[1]; [4]
  AUC: 798 ng·h/mL
  Cmax: 357 ng/mL
  Tmax: 1.27 h
[1]; [5]
  half-life: 2.2 h
[1]; [6]
  AUC: 767 ng·h/mL
  Cmax: 361 ng/mL
  Tmax: 1.3 h
[1]; [7]
  half-life: 2.2 h
[1]; [8]
  MTT (mean transit time), population estimate (%RSE): 0.567 (11.4%) h
  CL/F (oral clearance), population estimate (%RSE): 148 (10.6%) l h^-1
  VC/F (apparent central volume of distribution), population estimate (%RSE): 214 (16.9%) l
  ka (absorption rate constant from last transit compartment to central compartment), population estimate (%RSE): 2.89 (37.1%) h^-1
[1]; [9]
  QP/F (inter-compartment clearance), population estimate (%RSE): 28.5 (26.0%) l h^-1
  VP/F (apparent peripheral volume of distribution), population estimate (%RSE): 65.9 (19.1%) l
[1]; human, in vivo
  Between-occasion variability of ka, %CV (%RSE): 89.0% (23.7%) ^*
[1]; human, in vivo, listed as DHA
  Between-occasion variability of ka, %CV (%RSE): 89.0%
[2]; listed as DHA
  Effect of primaquine coadministration on pharmacokinetic properties: did not affect the pharmacokinetic properties; also recorded: did not have a significant impact
[3]
  Elimination half-life: 1 to 2 h
  Terminal half-life in previous reports: 8.7 to 150 min

## Clc1ccc2c(N3CCN(CCCN4CCN(c5ccnc6cc(Cl)ccc56)CC4)CC3)ccnc2c1 [piperaquine]
[1]; [10]
  Between-occasion variability of F (relative bioavailability), %CV (%RSE): 19.1% (13.3%) ^*
  Between-subject variability of F (relative bioavailability), %CV (%RSE): 17.9% (34.0%)
[1]; [4]
  Cmax: 300 ng/mL
  Tmax: 3.98 h
[1]; [5]
  half-life: 530 h
[1]; [6]
  Cmax: 332 ng/mL
  Tmax: 3.76 h
[1]; [7]
  half-life: 530 h
[1]; [8]
  MTT (mean transit time), population estimate (%RSE): 3.13 (9.42%) h
  CL/F (oral clearance), population estimate (%RSE): 27.4 (5.50%) l h^-1
  VC/F (apparent central volume of distribution), population estimate (%RSE): 751 (23.5%) l
[1]; [11]
  QP1/F (inter-compartment clearance), population estimate (%RSE): 206 (9.56%) l h^-1
  QP2/F (inter-compartment clearance), population estimate (%RSE): 71.5 (9.01%) l h^-1
  VP1/F (apparent peripheral volume of distribution), population estimate (%RSE): 1900 (8.23%) l
[1]; human, in vivo
  Between-occasion variability of MTT, %CV (%RSE): 32.2% (13.4%) ^*
  Between-subject variability of CL/F, %CV (%RSE): 10.9% (37.2%)
  Between-subject variability of QP2/F, %CV (%RSE): 24.1% (36.3%)
  Between-subject variability of VC/F, %CV (%RSE): 42.4% (40.9%)
  Variability in the absorption characteristics: below 35%
[1]; with primaquine, Bayesian post hoc estimates
  Day 7 conc., median (range): 16.7 (13.8–28.9) ng ml^-1
[1]; without primaquine, Bayesian post hoc estimates
  Day 7 conc., median (range): 18.3 (10.5–34.9) ng ml^-1
QT interval; linear direct-response model, healthy volunteers
  SLOPE (slope of the relationship between piperaquine concentration and ΔΔQTc prolongation), population estimate (%RSE): 0.0417 (12.5%) ms (ng ml^-1)^-1
QT interval; ordinary linear regression, P = 0.520
  Relationship between piperaquine drug concentrations and ΔQRS: no significant relationship
QT interval; per 100 ng ml^-1, individually corrected QT, healthy volunteers
  Population mean increase in ΔΔQTc (QT interval) per 100 ng ml^-1 increase in piperaquine plasma concentration: 4.17 ms
[2]; [12]
  Median decrease in central volume of distribution during concomitant primaquine: 37.3% (95% CI −67.6%, 33.7%)
  Median increase in mean transit absorption time during concomitant primaquine: 26.8% (95% CI −21.2%, 62.5%)
[2]
  Effect of primaquine coadministration on pharmacokinetic properties: did not affect the pharmacokinetic properties; also recorded: did not have a significant impact
[3]; introduction
  Terminal elimination half-life: 480 to 720 h
[3]; repeated bimonthly treatment doses
  Increase in piperaquine trough concentrations at week 36 compared with week 4: 267% (range 146–381%)
[3]; repeated monthly treatment doses
  Increase in piperaquine trough concentrations at week 36 compared with week 4: 336% (range 271–402%)
[3]; standard 3-day regimen of 50 mg kg^-1, pregnant and nonpregnant women with uncomplicated P. falciparum malaria
  Median maximum piperaquine concentration: 244 ng/mL

## COc1cc(NC(C)CCCN)c2ncccc2c1 (centres unmarked) [primaquine]
QT interval; primaquine-alone arm, 30 mg base, ordinary linear regression
  Relationship between ΔQTc and primaquine concentrations: no correlation; also recorded: no impact on ventricular repolarization
QT interval; stepwise covariate approach
  Effect of primaquine on the piperaquine exposure-QTc prolongation relationship: did not affect the relationship
